One data set has as its system Sucrose synthase II. As to conditions: cited from earlier work.
In another data set the target is T1, CMP-NeuNAc synthetase (Escherichia coli O18:K1:H7, UniProt P13266).
T1 construct: host or cells: E. coli K1
As to conditions: enzyme purified from E. coli K1; read-out: apparent Km; cited from earlier work.

The test system of data set [1] is UDP-GalNAc pyrophosphorylase. The note with it: substrate of UDP-GalNAc pyrophosphorylase; cited from earlier work.
The next data set addresses spHAS (Streptococcus pyogenes, UniProt P0C0H0). As to conditions: cited from earlier work.
For data set [2] the following is noted: more active than morphine; cited from earlier work.
A further data set deals with GalU (Escherichia coli, UniProt P0AEP3). Description: Enzymatic activity assay for GalU (two-step, UDP-glucose dehydrogenase coupled). In kind it is biochemical, E. coli. On the procedure:
A two-step assay was carried out to detect the GalU activity. In the first step, GalU catalyzed reactions were performed at room temperature (24° C.) for 15 min in a final volume of 250 μl containing 1.6 mM Glc-1-P, 2.8 mM UTP, 10 mM MgCl2 and 100 μl enzyme solution. A blank was performed with water replacing Glc-1-P. The reaction was stopped by adding cold NaCl solution (0.5 ml, 0.15 M) and immediately transferring the tube to a boiling water bath for 5 min to terminate the reaction. The contents of the tubes were cooled to room temperature and vortexed vigorously to break up the coagulum. After centrifuge at 1400×g for 15 min, the clear supernatant (0.2 ml) was subjected to the UDP-glucose assay in a cuvette with a total volume of 1 ml containing 0.03 M Tris-acetate buffer, pH 8.7, 1.36 mM NAD, 0.2 ml sample (supernatant from the previous procedure) and 3.2 mU UDP-glucose dehydrogenase. The OD change at 340 nm was monitored by a UV spectrophotometer (HP 8453 Spectrophotometer, Hewlett-Packard Corn.).

The next data set concerns GalT. In words: Enzymatic activity assay for GalT (two-step, UDP-glucose dehydrogenase coupled). In kind it is biochemical, E. coli. On the procedure:
This was a two-step assay. In the first step, GalT catalyzed reactions were performed at room temperature (24° C.) for 15 min in a final volume of 250 μl HEPES buffer (100 mM, pH 7.4) containing 1.6 mM Gal-1-P, 2.8 mM UDP-glucose, and 100 μl of enzyme solution. A blank was performed with water replacing Gal-1-P. The reaction was stopped by adding cold NaCl solution (0.5 ml, 0.15 M) and immediately transferring the tube to a boiling water bath for 5 min to terminate the reaction. The contents of the tubes were cooled to room temperature and vortexed vigorously to break up the coagulum. After centrifugation at 1400×g for 15 min, the clear supernatant (0.2 ml) was subjected to the UDP-glucose assay in a cuvette with a total volume of 1 ml containing 0.03 M Tris-acetate buffer, pH 8.7, 1.36 mM NAD, 0.2 ml sample (supernatant from the previous procedure) and 3.2 mU UDP-glucose dehydrogenase. The OD change at 340 nm was monitored by a UV spectrophotometer (HP 8453 Spectrophotometer, Hewlett-Packard Corn.).

Setting [3] is: 25 ml lysate per 1 L cell culture.
[4] abbreviates: purified His-tagged enzyme, 1 U = 1 μmole product per minute at 24° C.

Consider eleven molecules from patent US20020150968A1, “Glycoconjugate and sugar nucleotide synthesis using solid supports” (priority 2001, published 2002).

Where two headings read alike, the source gives them in different places.

Chain of spHAS (P0C0H0 whole entry): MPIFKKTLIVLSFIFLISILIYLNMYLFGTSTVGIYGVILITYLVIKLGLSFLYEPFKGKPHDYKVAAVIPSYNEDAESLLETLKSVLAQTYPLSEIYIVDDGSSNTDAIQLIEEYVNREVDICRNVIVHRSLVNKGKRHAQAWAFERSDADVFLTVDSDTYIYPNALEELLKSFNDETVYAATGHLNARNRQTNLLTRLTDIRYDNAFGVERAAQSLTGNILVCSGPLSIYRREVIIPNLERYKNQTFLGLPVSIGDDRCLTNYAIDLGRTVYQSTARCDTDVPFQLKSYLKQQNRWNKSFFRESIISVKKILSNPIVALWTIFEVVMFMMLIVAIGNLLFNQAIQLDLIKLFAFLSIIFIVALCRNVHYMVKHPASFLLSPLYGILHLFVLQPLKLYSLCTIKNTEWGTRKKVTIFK
Chain of GalU (P0AEP3 whole entry): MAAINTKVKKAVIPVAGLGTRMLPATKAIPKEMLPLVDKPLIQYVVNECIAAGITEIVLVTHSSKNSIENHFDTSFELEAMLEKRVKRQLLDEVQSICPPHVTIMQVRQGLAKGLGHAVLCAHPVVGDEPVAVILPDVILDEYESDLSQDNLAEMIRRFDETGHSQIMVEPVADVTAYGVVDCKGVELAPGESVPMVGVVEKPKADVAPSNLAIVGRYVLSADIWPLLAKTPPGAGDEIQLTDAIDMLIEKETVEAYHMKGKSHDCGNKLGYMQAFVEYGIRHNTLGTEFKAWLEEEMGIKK
T1 sequence (P13266 whole entry): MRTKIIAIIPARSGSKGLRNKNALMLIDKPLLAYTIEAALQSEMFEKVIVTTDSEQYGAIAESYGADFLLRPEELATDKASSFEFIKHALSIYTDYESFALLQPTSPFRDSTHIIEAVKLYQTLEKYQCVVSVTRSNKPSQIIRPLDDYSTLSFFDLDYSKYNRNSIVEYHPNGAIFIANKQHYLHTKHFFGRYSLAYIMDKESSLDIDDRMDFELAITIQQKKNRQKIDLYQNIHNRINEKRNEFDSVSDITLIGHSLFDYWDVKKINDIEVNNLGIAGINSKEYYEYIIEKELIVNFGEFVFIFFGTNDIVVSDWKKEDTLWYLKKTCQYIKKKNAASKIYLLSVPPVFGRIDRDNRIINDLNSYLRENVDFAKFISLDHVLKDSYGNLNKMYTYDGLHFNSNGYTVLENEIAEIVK

Regarding `Nc1ncnc2c1ncn2[C@@H]1O[C@H](COP(=O)(O)OP(=O)(O)OP(=O)(O)O)[C@@H](O)[C@H]1O` [ATP, adenosine 5′-triphosphate], the “effect on enzyme activity” value with Sucrose synthase II (both directions, in the presence of uridine substrate (UDP-Glc or UDP)) is “strong inhibition”.

For the molecule `Nc1ccn([C@@H]2O[C@H](COP(=O)(O)OP(=O)(O)OP(=O)(O)O)[C@@H](O)[C@H]2O)c(=O)n1` [CTP, Cytosine 5′-triphosphate], the Michaelis-Menten constant (Km) at CMP-NeuNAc synthetase is 310 µM.

Turning to `CC(=O)N[C@H]1C(OP(=O)(O)O)O[C@H](CO)[C@H](O)[C@@H]1O` (stereo partly shown) [GalNAc-1-P, N-acetylgalactosamine-1-phosphate], the Km in data set [1] is 290 µM.

In the case of `CC(=O)NC1C(OP(=O)(O)O)OC(CO)C(O)C1O` (stereo not shown) [GlcNAc-1-P], in data set [1], the Km was 1100 µM.

In the case of `[Mg+2]` [Mg^2+], in the data set with Sucrose synthase II (sucrose-cleavage direction), the “effect on enzyme activity” value is “little effect”.

As for `[Mn+2]` [Mn^2+], the “effect on enzyme activity” value with Sucrose synthase II (sucrose-cleavage direction) is given as “strongly inhibited”.

In the case of `O=C(O)[C@H]1O[C@H](OP(=O)(O)OP(=O)(O)OC[C@H]2O[C@@H](n3ccc(=O)[nH]c3=O)[C@H](O)[C@@H]2O)[C@H](O)[C@@H](O)[C@@H]1O` [UDP-GlcA, uridine 5′-diphosphoglucuronic acid], the Km at spHAS was 40 ± 4 µM.

Regarding `CC(=O)N[C@H]1[C@@H](OP(=O)(O)OP(=O)(O)OC[C@H]2O[C@@H](n3ccc(=O)[nH]c3=O)[C@H](O)[C@@H]2O)O[C@H](CO)[C@@H](O)[C@@H]1O` [UDP-GlcNAc, uridine 5′-diphospho-N-acetylglucosamine], the Km at spHAS is 149 ± 3 µM.

With `CN1CC[C@]23c4c5ccc(O)c4O[C@H]2[C@@H](O[C@@H]2O[C@H](C(=O)O)[C@@H](O)[C@H](O)[C@H]2O)C=C[C@H]3[C@H]1C5` [morphine-6-O-glucuronide], in data set [2], the “activity relative to morphine” value is 50 times.

B1: GalU: glucose-1-phosphate uridylyltransferase, E. coli, N-terminal six-histidine tag (protein, UniProt P0AEP3 2-302, looked up)
UTP--glucose-1-phosphate …: AAINTKVKKAVIPVAGLGTRMLPATKAIPKEMLPLVDKPLIQYVVNECIAAGITEIVLVTHSSKNSIENHFDTSFELEAMLEKRVKRQLLDEVQSICPPHVTIMQVRQGLAKGLGHAVLCAHPVVGDEPVAVILPDVILDEYESDLSQDNLAEMIRRFDETGHSQIMVEPVADVTAYGVVDCKGVELAPGESVPMVGVVEKPKADVAPSNLAIVGRYVLSADIWPLLAKTPPGAGDEIQLTDAIDMLIEKETVEAYHMKGKSHDCGNKLGYMQAFVEYGIRHNTLGTEFKAWLEEEMGIKK
modifications: N-terminal His6 tag
notes: glucose-1-phosphate uridylyltransferase, E. coli, N-terminal six-histidine tag
Take B1: in the data set with GalU (setting [3]), the “activity of enzyme in the cell lysate” value was 100 U/L. The specific activity in the data set with GalU (setting [4]) amounted to 10 U/mg.

B2: GalT: galactose-1-phosphate uridylyltransferase, E. coli, N-terminal six-histidine tag (protein, UniProt P09148 1-348, looked up)
Galactose-1-phosphate …: MTQFNPVDHPHRRYNPLTGQWILVSPHRAKRPWQGAQETPAKQVLPAHDPDCFLCAGNVRVTGDKNPDYTGTYVFTNDFAALMSDTPDAPESHDPLMRCQSARGTSRVICFSPDHSKTLPELSVAALTEIVKTWQEQTAELGKTYPWVQVFENKGAAMGCSNPHPHGQIWANSFLPNEAEREDRLQKEYFAEQKSPMLVDYVQRELADGSRTVVETEHWLAVVPYWAAWPFETLLLPKAHVLRITDLTDAQRSDLALALKKLTSRYDNLFQCSFPYSMGWHGAPFNGEENQHWQLHAHFYPPLLRSATVRKFMVGYEMLAETQRDLTAEQAAERLRAVSDIHFRESGV
modifications: N-terminal His6 tag
notes: galactose-1-phosphate uridylyltransferase, E. coli, N-terminal six-histidine tag
For the molecule B2, the “activity of enzyme in the cell lysate” value in the data set with GalT (setting [3]) was 100 U/L. The same molecule displayed a specific activity with GalT (setting [4]) of 5 U/mg.
